The numbers were not newly measured in US20050096390A1 (priority 2003, published 2005), which cites them from elsewhere.

For data set [1] the following is noted: pH of 7.0.
The conditions of data set [2]: 160 mg fenofibrate tablets, typical average blood plasma sample.

On to `CC[C@H](C)C(=O)O[C@H]1C[C@H](O)C=C2C=C[C@H](C)[C@H](CC[C@@H](O)C[C@@H](O)CC(=O)[O-])[C@H]21.[Na+]` (relative stereo) [Pravastatin sodium, 1-naphthalene-heptanoic acid, 1,2,6,7,8,8a-hexahydro-(beta),(beta),6-trihydroxy-2-methyl-8-(2-methyl-1-oxobutoxy)-, monosodium salt, [1S-[1(alpha)((beta)S*,(beta)S*),2(alpha),6(alpha), 8(beta)(R*),8a(alpha)]]-], for which the solubility in water is reported as over 300 mg/mL. Also, the “solubility in acetone, acetonitrile, chloroform, and ether” value (acetone, acetonitrile, chloroform, ether) was “practically insoluble”. Further, the solubility in isopropanol result (isopropanol) was “slightly soluble”. Moreover, for the setting “methanol”, the solubility in methanol is over 300 mg/mL. Moreover, in data set [1], the “partition coefficient (octanol/water)” value is on record as 0.59.
Regarding `CC(C)OC(=O)C(C)(C)Oc1ccc(C(=O)c2ccc(Cl)cc2)cc1` [Fenofibrate], in data set [2], the AUC0-24 of fenofibrate result was “about 118,300 h·ng/mL”.
With `CC[C@H](C)C(=O)O[C@H]1C[C@H](O)C=C2C=C[C@H](C)[C@H](CC[C@@H](O)C[C@@H](O)CC(=O)O)[C@H]21` [Pravastatin], the solubility in water entry was “sparingly soluble”.
